According to patent publication US6455584B1, “Prostaglandin E1 derivatives” (Taisho Pharmaceutical Co., Ltd., priority 1999, dated 2002):

System: human vascular smooth muscle cells
Assay: DNA synthesis inhibition activity of PGE1 derivatives to human vascular smooth muscle cells (3H-thymidine intake)
Type: cell-based
Settings: for Growth inhibition rate (percent to control): concentration of the added compound 1×10^−5 M, ethanol solution, 3H-thymidine intake after culturing 24 hours, compared with vehicle-treated control; for growth inhibition activity against human vascular smooth muscle cells: summary in words of Table 1, 1×10^−5 M
Protocol: Determination of DNA synthesis inhibition activity of PGE1 derivatives to human vascular smooth muscle cells
On a plate with 24 wells (manufactured by Corning Co.), 1×10^4 cells/well of quintic culture cells of vascular cells derived from normal human aorta (manufactured by Kurabo Co.) were inoculated and cultured for 2 days. The medium was exchanged from the growth medium (SG2: manufactured by Kurabo Co.) to the basal medium (SB2: manufactured by Kurabo Co.), and cultured for 24 hours, to which was added the growth medium (SG2) containing an ethanol solution of the test compound. 0.01 mci/well of ^3H-thymidine (manufactured by Daiichi Chemicals Co.) was added and, after culturing for 24 hours, the cultured supernatant was removed by suction, followed by washing with a phosphate buffer solution (PBS).
5% Trichloroacetic acid (TCA) was added and, after allowing to stand at 4° C. for 20 minutes, the mixture was washed once with TCA. The mixture was washed with PBS, and dissolved in 0.5 M aqueous potassium hydroxide solution. Intake of ^3H-thymidine was determined using 20 μl of the aqueous potassium hydroxide solution dissolving the cells which incorporated ^3H-thymidine in the nucleus by means of a liquid scintillation counter (manufactured by Hewlett-Packard Co.).
Note: Compounds 7, 70 and 92 in the table are those which were prepared in Examples. The test compounds were each used as an ethanol solution (the concentration of the added compound: 1×10^−5 M), and compared with control (vehicle-treated group).

SMILES	Growth inhibition rate (percent to control)	growth inhibition activity against human vascular smooth muscle cells
COC(=O)COCCCCC1C(=O)C[C@@H](SCCO)C1C#CC(O)C[C@H](C)CCC=C(C)C (stereo partly drawn) [Compound 92, (11R,17R)-3-oxa-11-deoxy-11-(2-hydroxyethylthio)-20-isopropylidene-17-methyl-13,14-didehydro-PGE1 Methyl Ester]	99.3%	high growth inhibition activity
CCCC[C@@H](C)CC(O)C#CC1C(CCCCOCC(=O)OC)C(=O)C[C@H]1SCCO (stereo partly drawn) [Compound 70, (11R,17R)-3-oxa-11-deoxy-11-(2-hydroxyethylthio)-17,20-dimethyl-13,14-didehydro-PGE1 Methyl Ester]	95.6%	high growth inhibition activity
CCCC[C@@H](C)CC(O)C#CC1C(CCCCCCC(=O)O)C(=O)C[C@H]1SCCO (stereo partly drawn) [Compound 7, (11R,17R)-11-deoxy-11-(2-hydroxyethylthio)-17,20-dimethyl-13,14-didehydro-PGE1]	98.4%	high growth inhibition activity
